Patent US20140341939A1 (NATIONAL UNIVERSITY CORPORATION KOCHI UNIVERSITY, priority 2011, published 2014)
Entries after “also recorded” stand apart in the source; their conditions may differ. Where two headings read alike, the source gives them in different places. Values belong to the compound of their own block, whether it stands above or below them. Where a SMILES comes first, the peptide text is derived from it. Where no end group is shown, it is not given here. [ ]: non-standard residue; d: D form. The star is where a group is joined. Biotin = O=C1N[C@H]2[C@H](CS[C@H]2CCCCC(=O)*)N1; βAla = NCCC(=O)O

Assays:
serum peptidase [1] = experiment: Degradation of peptide in 10% fresh mouse serum (HPLC of remaining peptide); conditions: for digestion resistance to serum peptidases (in words): up to 16 hr (FIG. 21)
Procedure: (§1) Peptide was digested in TBS containing 10% fresh mouse serum or fresh human serum. After incubation at 37° C. for a given time, 1% trifluoro acid was added to remove various serum proteins by precipitation. After short centrifugation, the soluble fraction was analyzed by reversed-phase HPLC using a C18 analysis column. To normalize variation in the total amount of the peptide loaded for each HPLC, the peak of non-protein components contained in the serum, which is absorbed at the wavelength of 220 nm, was used as an internal control. The peak area of undigested peptides was quantitatively monitored by Chromatopac C-R8A (Shimadzu Corp., Kyoto, Japan), and the amount of the remaining peptide was calculated.
(§2) Therefore, the inventor examined the digestion resistance of peptide in vitro in a 10% fresh mouse serum. The amount of a remaining undigested peptide was quantified by HPLC.

EG7 tumor = experiment: Antitumor activity by in vivo immunization with OVA-derived peptides (EL4 / EG7 tumor); conditions: CBF1 mouse, peptide-loaded LPS blast i.p. 3 times; EL4 / EG7 tumor (FIG. 8)
Description: CBF1 mouse was immunized with LPS blast of splenocyte pulsed with either λ repressor peptide ([…]; SEQ ID NO: 39) or OVAII peptide as a Th epitope peptide, and K^b-binding OVA-I peptide, which is a CTL inducing peptide. LPS blast derived from one spleen was pulsed with peptide, and intraperitoneally injected to immunize two mice. The next day of the third immunization, 9×10^6 EL4 cells and 1.2×10^7 EG7 cells were intradermally transplanted in a pair on the back skin of the mice. The tumor size was measured every other day. Immunization was performed once again 2 weeks from the tumor transplantation.
To verify the anti-tumor effect of inducing tumor-specific Th cells in vivo, the inventor compared the immunization protocol that induces 1. CTL alone, 2. CTL and a third party antigen-specific Th cell, and 3. CTL and tumor-specific Th cell. As the antigen presenting cell, LPS blast of spleen cell was used, and the APC loaded with each peptide alone or the mixture of each peptide was injected intraperitoneally 3 times (once per week). On the day of third immunization, 9×10^6 EL4 and 1.2×10^7 EG7 tumor were innoculated on the opposite sides of the back, and the tumor diameter was measured from day 4.

DO11.10 cells [2] = experiment: Growth of CD4 T cells: proliferation of DO11.10 cells by OVII modified peptides (3H-thymidine); format: cell-based, mouse; conditions: for sensitization activity compared to OVII+ (in words): effect of lysine, FIG. 20
[3] = TBS containing 10% fresh mouse serum; conditions: 37° C., up to 16 hr
[4] = test system: peptidase activity in the serum; experiment: Effect of peptidase inhibitor on OVII peptide digestion by mouse serum; format: biochemical; conditions: inhibitor-containing buffer (FIGS. 22-24)
Description: Given the above-mentioned Examples, the inventor examined the effect of peptidase inhibitor on the peptide digestion to identify the peptidase in the serum.

serum peptidase [5] = test system: serum peptidase
Procedure: as §1, §2

DO11.10 cells [6] = experiment: Antigen presentation by F2-IA^d vascular endothelial cells (CD69 expression by DO11.10 cells); format: cell-based, mouse
Procedure: EL4 cells were first opsonized with RGD peptide. Next, 5 mg/ml OVA protein was loaded on the cytoplasm by osmotic pressure loading. After sufficient washing, 2×10^6 EL4 cells were added to a confluent culture medium of F2-IA^d cells on a 24-well plate (cultured for 2 days in advance in the presence of 500 U/ml rmIFN-γ). As a control, EL4 and EG7 mock-loaded with PBS were RGD-modified in the same manner and used. EL4 and other target cells were added to F2-IA^d, and the cell mixture was cultured for 24 hr. As for the control well wherein F2-IA^d cells were directly loaded with OVAII peptide, the cells were pulsed with peptide for 2 hr at the end of the culture. After removing the non-adherent cells and debris of dead cells, the surface of the adhered F2-IA^d cells was sufficiently washed. In an antigen presentation inhibitory experiment using chloroquine, 100 μM chloroquine was added 30 min before addition of EL4, EL4 loaded with OVA or 0.25 mg/ml OVA protein. Furthermore, F2-IA^d cells were cultured for 3 days in the continuous presence of chloroquine.
Whether the F2-IA^d cells presented the target antigen polypeptide on the cell surface was evaluated by monitoring the expression of CD69 by DO11.10 cells. The antigen-presenting F2-IA^d cells and DO11.10 cells were mixed and centrifuged to contact the cells with one another. After 6 hr and 24 hr, the cells were stained with biotin-labeled anti CD69 mAb (H1.2F3, BD Biosciences), and the expression of CD69 by DO11.10 cells was detected by flow cytometry (stained positive with FITC-labeled KJ1.26 (anti clonotypic TCR mAb)).

Compound: LEDARRLKAIYEKKK [X peptide, third party antigen peptide]
- tumor control, Th peptide together with OVA-I (EG7 tumor): could delay tumor growth as compared to CTL single induction, but the mouse finally died

Compound: SKISQAVHAAHAEINEARK [KOVII+K]
- sensitization activity compared to OVII+ (in words) (DO11.10 cells [2]): no difference in the sensitization activity compared to OVII+

Compound: CC(C)C[C@H](NC(=O)[C@@H](O)[C@H](N)Cc1ccccc1)C(=O)O [bestatin]
- inhibition of OVII peptide digestion / peptidase activity in serum [4]: about half of the peptidase activity was suppressed

Compound: SKISQAVHAAHAEINEAR [KOVII+]
- sensitization activity compared to OVII+ (in words) (DO11.10 cells [2]): no difference in the sensitization activity compared to OVII+

Compound: CCN(CC)CCCC(C)Nc1ccnc2cc(Cl)ccc12 (centres unmarked) [chloroquine]
- antigen presentation of OVA-loaded EL4 by F2-IA^d cells (DO11.10 cells [6]; 100 μM chloroquine (FIG. 4)): sensitive to chloroquine
- presentation of OVA protein by F2-IA^d cells (DO11.10 cells [6]; 100 μM chloroquine (FIGS. 3, 4)): decreased

Compound: SK^bioISQAVHAAHAEINEARK^bio (SK(Biotin)ISQAVHAAHAEINEARK(Biotin)) [bOVII+b]
- activity to induce proliferation of DO11.10 Th cell relative to KOVII+ and KOVII+K, respectively (DO11.10 cells [2]; bOVII+ vs KOVII+, bOVII+b vs KOVII+K (FIG. 20)): about 10 fold
- increase in sensitization activity compared to OVIIβ, OVIIPA (DO11.10 cells [2]; relative to peptides with Pro at second position from C terminal and/or β-Ala at C terminal (OVIIβ, OVIIPA, FIG. 11)): 100 fold

Compound: PSK^bioISQAVHAAHAEINEARK^bioPβA
- fragment found [3]: product which has lost the biotin molecule on the N terminal side, major

Compound: CC[C@H](C)[C@H](N)C(=O)N[C@@H](CO)C(=O)N[C@@H](CCC(N)=O)C(=O)N[C@@H](C)C(=O)N[C@H](C(=O)N[C@@H](Cc1c[nH]cn1)C(=O)N[C@@H](C)C(=O)N[C@@H](C)C(=O)N[C@@H](Cc1c[nH]cn1)C(=O)N[C@@H](C)C(=O)N[C@@H](CCC(=O)O)C(=O)N[C@H](C(=O)N[C@@H](CC(N)=O)C(=O)N[C@@H](CCC(=O)O)C(=O)N[C@@H](C)C(=O)N1CCC[C@H]1C(=O)NCCC(=O)O)[C@@H](C)CC)C(C)C [OVIIPβ] (HELM PEPTIDE1{I.S.Q.A.V.H.A.A.H.A.E.I.N.E.A.P.[bAla]}$$$$V2.0; N-terminus and C-terminus assumed)
- digestion resistance to serum peptidases (in words) (serum peptidase [1]; 10% fresh mouse serum): the protection effect was further enhanced, and the amount of the peptide remaining 16 hr later increased

Compound: Ac-ISQAVHAAHAEINEA [ac-OVII]
- digestion resistance to serum peptidases (in words) (serum peptidase [5]): higher protection effect than the above-mentioned single modification of the C terminal side
- sensitization activity / Th inducing activity (in words) (DO11.10 cells [2]; 10% FCS-DMEM, compared to OVII (FIG. 11)): almost no influence on the sensitization activity; also recorded: no difference from OVII

Compound: OVA-I: K^b-binding OVA-I peptide, which is a CTL inducing peptide (SIINFEKL; UniProt P01012 258-265, looked up, fragment)
- tumor control, CTL-inducing peptide alone (EG7 tumor): tumor control was only possible to a limited degree

Continued, values first:

- digestion resistance to serum peptidases (in words) (serum peptidase [1]; 10% fresh mouse serum): further additional protective effect
Compound: CC[C@H](C)[C@H](NC(=O)[C@H](CCC(=O)O)NC(=O)[C@H](C)NC(=O)[C@H](Cc1c[nH]cn1)NC(=O)[C@H](C)NC(=O)[C@H](C)NC(=O)[C@H](Cc1c[nH]cn1)NC(=O)[C@@H](NC(=O)[C@H](C)NC(=O)[C@H](CCC(N)=O)NC(=O)[C@H](CO)NC(=O)[C@@H](NC(=O)[C@H](CO)NC(=O)[C@@H]1CCCN1)[C@@H](C)CC)C(C)C)C(=O)N[C@@H](CC(N)=O)C(=O)N[C@@H](CCC(=O)O)C(=O)N[C@@H](C)C(=O)N1CCC[C@H]1C(=O)NCCC(=O)O [POVIIPβ]

- protection of peptide from digestion (serum peptidase [1]; 10% fresh mouse serum, within 4 hr): protects about half of the peptide
Compound: ISQAVHAAHAEINEAPA [OVIIPA]

- cleaved bond [3]: Ile-S, major
Compound: ISQAVHAAHAEINEAPA

- level of epitope remaining in the serum compared with POVIIPβ (serum peptidase [1]; mouse, serum): almost the same for both peptides
Compound: CC[C@H](C)[C@H](NC(=O)[C@H](CCC(=O)O)NC(=O)[C@H](C)NC(=O)[C@H](Cc1c[nH]cn1)NC(=O)[C@H](C)NC(=O)[C@H](C)NC(=O)[C@H](Cc1c[nH]cn1)NC(=O)[C@@H](NC(=O)[C@H](C)NC(=O)[C@H](CCC(N)=O)NC(=O)[C@H](CO)NC(=O)[C@@H](NC(=O)[C@H](CCCCNC(=O)CCCC[C@@H]1SC[C@@H]2NC(=O)N[C@@H]21)NC(=O)[C@H](CO)NC(=O)[C@@H]1CCCN1)[C@@H](C)CC)C(C)C)C(=O)N[C@@H](CC(N)=O)C(=O)N[C@@H](CCC(=O)O)C(=O)N[C@@H](C)C(=O)N[C@@H](CCCCNC(=O)CCCC[C@@H]1SC[C@@H]2NC(=O)N[C@@H]21)C(=O)N1CCC[C@H]1C(=O)NCCC(=O)O [PbOVIIbPβ] (H-PSK(Biotin)ISQAVHAAHAEINEAK(Biotin)P[βAla]-OH; N-terminus and C-terminus assumed)

- digestion resistance to serum peptidases (in words) (serum peptidase [5]): no digestion resistance
Compound: CC[C@H](C)[C@H](NC(=O)[C@H](CCC(=O)O)NC(=O)[C@H](C)NC(=O)[C@H](Cc1c[nH]cn1)NC(=O)[C@H](C)NC(=O)[C@H](C)NC(=O)[C@H](Cc1c[nH]cn1)NC(=O)[C@@H](NC(=O)[C@H](C)NC(=O)[C@H](CCC(N)=O)NC(=O)[C@H](CO)NC(=O)[C@@H](NC(=O)[C@H](CCCCNC(=O)CCCC[C@@H]1SC[C@@H]2NC(=O)N[C@@H]21)NC(=O)[C@@H](N)CO)[C@@H](C)CC)C(C)C)C(=O)N[C@@H](CC(N)=O)C(=O)N[C@@H](CCC(=O)O)C(=O)N[C@@H](C)C(=O)N[C@@H](CCCNC(=N)N)C(=O)O [bOVII+] (H-SK(Biotin)ISQAVHAAHAEINEAR-OH; N-terminus and C-terminus assumed)

- cleaved bond [3]: A-Arg, major
- fragment found [3]: product missing one biotin
Compound: SK^bioISQAVHAAHAEINEAR (H-SK(Biotin)ISQAVHAAHAEINEAR-OH; N-terminus and C-terminus assumed; SMILES CC[C@H](C)[C@H](NC(=O)[C@H](CCC(=O)O)NC(=O)[C@H](C)NC(=O)[C@H](Cc1c[nH]cn1)NC(=O)[C@H](C)NC(=O)[C@H](C)NC(=O)[C@H](Cc1c[nH]cn1)NC(=O)[C@@H](NC(=O)[C@H](C)NC(=O)[C@H](CCC(N)=O)NC(=O)[C@H](CO)NC(=O)[C@@H](NC(=O)[C@H](CCCCNC(=O)CCCC[C@@H]1SC[C@@H]2NC(=O)N[C@@H]21)NC(=O)[C@@H](N)CO)[C@@H](C)CC)C(C)C)C(=O)N[C@@H](CC(N)=O)C(=O)N[C@@H](CCC(=O)O)C(=O)N[C@@H](C)C(=O)N[C@@H](CCCNC(=N)N)C(=O)O)

- cleaved bond [3]: A-R, major
- fragment found [3]: product missing one biotin
Compound: SK^bioISQAVHAAHAEINEARK^bio

- cleaved bond [3]: Ile-S, major
Compound: HELM PEPTIDE1{I.S.Q.A.V.H.A.A.H.A.E.I.N.E.A.P.[bAla]}$$$$V2.0 (N-terminus and C-terminus assumed; SMILES CC[C@H](C)[C@H](N)C(=O)N[C@@H](CO)C(=O)N[C@@H](CCC(N)=O)C(=O)N[C@@H](C)C(=O)N[C@H](C(=O)N[C@@H](Cc1c[nH]cn1)C(=O)N[C@@H](C)C(=O)N[C@@H](C)C(=O)N[C@@H](Cc1c[nH]cn1)C(=O)N[C@@H](C)C(=O)N[C@@H](CCC(=O)O)C(=O)N[C@H](C(=O)N[C@@H](CC(N)=O)C(=O)N[C@@H](CCC(=O)O)C(=O)N[C@@H](C)C(=O)N1CCC[C@H]1C(=O)NCCC(=O)O)[C@@H](C)CC)C(C)C)

- cleaved bond [3]: Ser-K, major
- fragment found [3]: product missing one biotin
Compound: SKISQAVHAAHAEINEARK^bioG

- protection of peptide from digestion (serum peptidase [5]): protects about half of the peptide
Compound: CC[C@H](C)[C@H](N)C(=O)N[C@@H](CO)C(=O)N[C@@H](CCC(N)=O)C(=O)N[C@@H](C)C(=O)N[C@H](C(=O)N[C@@H](Cc1c[nH]cn1)C(=O)N[C@@H](C)C(=O)N[C@@H](C)C(=O)N[C@@H](Cc1c[nH]cn1)C(=O)N[C@@H](C)C(=O)N[C@@H](CCC(=O)O)C(=O)N[C@H](C(=O)N[C@@H](CC(N)=O)C(=O)N[C@@H](CCC(=O)O)C(=O)N[C@@H](C)C(=O)NCC(=O)NCCC(=O)O)[C@@H](C)CC)C(C)C [OVIIβ] (HELM PEPTIDE1{I.S.Q.A.V.H.A.A.H.A.E.I.N.E.A.G.[bAla]}$$$$V2.0; N-terminus and C-terminus assumed)
